In patent US9956198B2, “Furo[3,4-b]pyran compounds and pharmaceutical uses” (Victoria Link Limited, priority 2013, dated 2018):
Where two headings read alike, the source gives them in different places. One block for each compound: values may come before it.

How the values were obtained:
c-Src (sarcoma) kinase = c-Src (sarcoma) kinase (Homo sapiens, UniProt P12931); conditions: cited from earlier work
[1] = system: PTH-induced bone resorption; conditions: cited from earlier work
[2] = system: HL-60 (human leukaemia) cell line; test: MTT cell proliferation assay, HL-60; assay type: cell-based; conditions: HL-60, MTT assay, 2 days, read-out: IC50, growth inhibition
Description: (§1) Cancer assays were performed using MTT cell proliferation assays with three different immortalised cell lines: a human leukaemia cell line (HL-60), an ovarian cancer cell line (1A9) and a breast cancer cell line (MCF7).
(§2) HL-60, 1A9 and MCF cells were cultured at 37° C. in a 5% CO2 in air atmosphere in RPMI-1640 medium supplemented with 10% fetal calf serum, 100 units/mL penicillin, and 100 units/mL streptomycin (with 0.1% insulin added to the medium for 1A9 and MCF7 cell cultures). An MTT cell proliferation assay was used that involved the reduction of 3-(4,5-dimethylthiazol-2-yl)-2,5-diphenoyltetrazolium bromide (MTT) by viable cells as previously described.^14 Cells were treated with compounds of the invention in 96-well plates (duplicate wells) for 2 days (for HL-60) or 3 days (for 1A9 or MCF7), then incubated with 5 mg/mL MTT in phosphate-buffered saline for 2 h. The blue crystals that formed were solubilised in 10% sodium dodecyl sulfate, 45% dimethylformamide and the absorbance of the solutions measured at 570 nm in a multiwell plate reader (EnSpire™ 2300 Multiplate Reader from Perkin Elmer, Waltham, USA. The half-maximal inhibitory concentration (IC50) was calculated from a concentration-response curve using Sigma Plot software v8 (Systat Software Inc. Point Richmond, Calif.).

[3] = system: MCF7 (breast cancer) cell line; test: MTT cell proliferation assay, MCF7; assay type: cell-based; conditions: Homo sapiens, 72 h, 3 days, read-out: IC50, growth inhibition
Description: as §1, §2

AMPK A2/B1/G1 = AMPK A2/B1/G1 (Homo sapiens, UniProt P54646); test: SelectScreen kinase profiling, Z'-LYTE protocol; assay type: biochemical
Sequence of AMPK A2/B1/G1 (P54646 whole entry): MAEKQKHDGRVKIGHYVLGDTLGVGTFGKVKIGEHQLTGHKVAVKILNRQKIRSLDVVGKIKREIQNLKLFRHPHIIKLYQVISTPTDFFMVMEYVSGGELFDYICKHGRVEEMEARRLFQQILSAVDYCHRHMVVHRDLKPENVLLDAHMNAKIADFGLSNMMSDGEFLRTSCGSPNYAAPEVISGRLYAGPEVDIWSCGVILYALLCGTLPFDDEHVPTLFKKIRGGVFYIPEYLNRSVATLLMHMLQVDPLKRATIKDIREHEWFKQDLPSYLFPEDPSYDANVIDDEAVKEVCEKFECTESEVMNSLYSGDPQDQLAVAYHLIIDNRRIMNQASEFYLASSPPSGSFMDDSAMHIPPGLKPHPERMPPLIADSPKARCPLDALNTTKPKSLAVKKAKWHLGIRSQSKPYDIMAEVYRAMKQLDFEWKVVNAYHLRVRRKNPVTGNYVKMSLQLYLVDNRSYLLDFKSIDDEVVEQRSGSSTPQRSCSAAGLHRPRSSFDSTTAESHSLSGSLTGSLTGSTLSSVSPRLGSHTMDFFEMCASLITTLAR
Sequence of AMPK A2/B1/G1 (Q9Y478 whole entry partner): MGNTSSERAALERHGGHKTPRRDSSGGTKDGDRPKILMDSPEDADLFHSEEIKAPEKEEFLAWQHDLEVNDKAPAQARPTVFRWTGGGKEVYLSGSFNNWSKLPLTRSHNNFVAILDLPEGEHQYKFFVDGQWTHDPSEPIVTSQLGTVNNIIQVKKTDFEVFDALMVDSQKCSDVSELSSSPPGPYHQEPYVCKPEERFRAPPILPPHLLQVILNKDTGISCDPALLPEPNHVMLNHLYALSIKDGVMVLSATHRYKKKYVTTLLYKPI
Sequence of AMPK A2/B1/G1 (P54619 whole entry partner): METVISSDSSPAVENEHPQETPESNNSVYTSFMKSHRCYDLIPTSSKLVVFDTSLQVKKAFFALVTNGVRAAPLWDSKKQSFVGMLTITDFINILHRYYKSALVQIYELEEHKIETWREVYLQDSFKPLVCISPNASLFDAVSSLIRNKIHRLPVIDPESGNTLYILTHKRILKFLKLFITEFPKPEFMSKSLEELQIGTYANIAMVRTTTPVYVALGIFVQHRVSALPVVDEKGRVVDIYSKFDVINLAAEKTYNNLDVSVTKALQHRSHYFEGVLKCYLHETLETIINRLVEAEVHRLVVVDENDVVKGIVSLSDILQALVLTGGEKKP
Description: (§3) Kinase inhibition assays were conducted by Life Technologies using their SelectScreen® Whole Panel ACCESS Biochemical Kinase Profiling Service. The Z'-LYTE® Screening Protocol was used to obtain the results for the following kinases: AMPK A2/B1/G1, BMX, BTK, MAPK14 (p38 alpha), PLK1, TXK. The LanthaScreen Protocol was used to obtain the result for the following kinase: NUAK2.
(§4) Compound 10 was assessed for kinase inhibition by Life Technologies using the SelectScreen® Whole Panel ACCESS Biochemical Kinase Profiling Service. The Z'-LYTE® Screening Protocol was used to obtain the results for the following kinases: AMPK A2/B1/G1, BMX, BTK, MAPK14 (p38 alpha), PLK1, TXK. The LanthaScreen Protocol was used to obtain the result for the following kinase: NUAK2.

BMX = target: T1, BMX (Homo sapiens, UniProt P51813); test: SelectScreen kinase profiling, Z'-LYTE protocol; assay type: biochemical
T1 sequence (P51813 1-675): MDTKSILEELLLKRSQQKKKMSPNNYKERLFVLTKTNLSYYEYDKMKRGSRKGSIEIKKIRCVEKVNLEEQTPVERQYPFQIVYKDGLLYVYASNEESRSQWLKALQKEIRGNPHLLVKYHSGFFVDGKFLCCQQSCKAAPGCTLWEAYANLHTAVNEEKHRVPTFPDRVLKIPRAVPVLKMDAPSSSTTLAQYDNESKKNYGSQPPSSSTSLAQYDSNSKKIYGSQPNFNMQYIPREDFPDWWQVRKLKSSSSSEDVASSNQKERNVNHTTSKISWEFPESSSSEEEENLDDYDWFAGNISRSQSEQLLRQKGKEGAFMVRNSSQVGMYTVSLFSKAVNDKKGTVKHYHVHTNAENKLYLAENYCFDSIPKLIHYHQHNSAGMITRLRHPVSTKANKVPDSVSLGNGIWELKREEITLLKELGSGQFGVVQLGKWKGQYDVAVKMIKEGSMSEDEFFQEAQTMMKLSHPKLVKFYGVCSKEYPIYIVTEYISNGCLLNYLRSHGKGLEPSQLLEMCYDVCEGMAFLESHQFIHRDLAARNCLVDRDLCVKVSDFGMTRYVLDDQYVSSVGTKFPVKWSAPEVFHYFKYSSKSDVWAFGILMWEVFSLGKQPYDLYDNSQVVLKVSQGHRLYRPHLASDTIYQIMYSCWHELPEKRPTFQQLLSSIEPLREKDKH
Description: as §3, §4

[4] = target: BTK (Bruton's tyrosine kinase) (Homo sapiens, UniProt Q06187); test: SelectScreen kinase profiling, Z'-LYTE protocol; assay type: biochemical
Sequence of BTK (Bruton's tyrosine kinase) (Q06187 whole entry): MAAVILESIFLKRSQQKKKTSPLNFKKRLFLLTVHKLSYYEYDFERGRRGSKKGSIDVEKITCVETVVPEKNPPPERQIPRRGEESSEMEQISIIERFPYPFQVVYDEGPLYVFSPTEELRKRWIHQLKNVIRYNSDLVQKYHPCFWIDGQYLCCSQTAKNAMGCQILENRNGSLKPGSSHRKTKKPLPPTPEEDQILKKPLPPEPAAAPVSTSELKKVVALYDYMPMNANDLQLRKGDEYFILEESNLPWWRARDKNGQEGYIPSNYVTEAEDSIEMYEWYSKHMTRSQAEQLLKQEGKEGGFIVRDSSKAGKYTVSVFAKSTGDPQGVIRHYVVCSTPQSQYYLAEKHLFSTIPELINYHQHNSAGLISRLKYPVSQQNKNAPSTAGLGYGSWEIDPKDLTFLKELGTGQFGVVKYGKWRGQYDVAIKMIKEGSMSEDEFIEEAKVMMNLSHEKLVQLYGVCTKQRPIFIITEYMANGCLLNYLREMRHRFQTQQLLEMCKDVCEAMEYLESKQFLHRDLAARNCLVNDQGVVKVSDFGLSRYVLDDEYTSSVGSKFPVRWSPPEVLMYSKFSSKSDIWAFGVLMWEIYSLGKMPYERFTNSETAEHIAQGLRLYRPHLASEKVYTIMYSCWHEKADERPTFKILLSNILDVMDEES
Description: as §3, §4

MAPK14 (p38 alpha) = MAPK14 (p38 alpha) (Homo sapiens, UniProt Q16539); test: SelectScreen kinase profiling, Z'-LYTE protocol; assay type: biochemical
Sequence of MAPK14 (p38 alpha) (Q16539 whole entry): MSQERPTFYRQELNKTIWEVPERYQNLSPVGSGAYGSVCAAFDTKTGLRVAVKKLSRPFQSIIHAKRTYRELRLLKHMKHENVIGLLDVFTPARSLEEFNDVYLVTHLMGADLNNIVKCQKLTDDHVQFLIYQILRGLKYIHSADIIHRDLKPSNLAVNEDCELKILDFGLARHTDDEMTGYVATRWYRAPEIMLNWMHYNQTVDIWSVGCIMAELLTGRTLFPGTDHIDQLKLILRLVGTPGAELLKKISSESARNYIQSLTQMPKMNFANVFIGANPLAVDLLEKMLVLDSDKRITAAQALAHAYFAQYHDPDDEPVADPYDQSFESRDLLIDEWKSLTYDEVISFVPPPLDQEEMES
Description: as §3, §4

PLK1 = PLK1 (Homo sapiens, UniProt P53350); test: SelectScreen kinase profiling, Z'-LYTE protocol; assay type: biochemical
Sequence of PLK1 (P53350 whole entry): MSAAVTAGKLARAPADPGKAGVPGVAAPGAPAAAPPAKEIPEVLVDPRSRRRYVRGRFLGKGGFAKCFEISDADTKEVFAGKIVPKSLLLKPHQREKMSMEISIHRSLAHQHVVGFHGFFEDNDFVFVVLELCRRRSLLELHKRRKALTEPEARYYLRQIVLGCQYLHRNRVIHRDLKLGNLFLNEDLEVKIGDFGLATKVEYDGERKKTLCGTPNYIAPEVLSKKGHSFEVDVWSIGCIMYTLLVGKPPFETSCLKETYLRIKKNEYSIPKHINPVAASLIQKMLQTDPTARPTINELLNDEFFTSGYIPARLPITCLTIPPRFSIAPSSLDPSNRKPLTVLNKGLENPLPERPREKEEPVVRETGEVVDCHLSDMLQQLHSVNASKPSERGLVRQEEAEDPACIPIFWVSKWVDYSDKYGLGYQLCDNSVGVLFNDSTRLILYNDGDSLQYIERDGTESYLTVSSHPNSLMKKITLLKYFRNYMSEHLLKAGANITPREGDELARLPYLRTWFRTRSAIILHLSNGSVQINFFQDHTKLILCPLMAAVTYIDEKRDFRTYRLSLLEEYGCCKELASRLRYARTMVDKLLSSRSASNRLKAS
Description: as §3, §4

TXK = target: T2, TXK (Homo sapiens, UniProt P42681); test: SelectScreen kinase profiling, Z'-LYTE protocol; assay type: biochemical
T2 sequence (P42681 1-527): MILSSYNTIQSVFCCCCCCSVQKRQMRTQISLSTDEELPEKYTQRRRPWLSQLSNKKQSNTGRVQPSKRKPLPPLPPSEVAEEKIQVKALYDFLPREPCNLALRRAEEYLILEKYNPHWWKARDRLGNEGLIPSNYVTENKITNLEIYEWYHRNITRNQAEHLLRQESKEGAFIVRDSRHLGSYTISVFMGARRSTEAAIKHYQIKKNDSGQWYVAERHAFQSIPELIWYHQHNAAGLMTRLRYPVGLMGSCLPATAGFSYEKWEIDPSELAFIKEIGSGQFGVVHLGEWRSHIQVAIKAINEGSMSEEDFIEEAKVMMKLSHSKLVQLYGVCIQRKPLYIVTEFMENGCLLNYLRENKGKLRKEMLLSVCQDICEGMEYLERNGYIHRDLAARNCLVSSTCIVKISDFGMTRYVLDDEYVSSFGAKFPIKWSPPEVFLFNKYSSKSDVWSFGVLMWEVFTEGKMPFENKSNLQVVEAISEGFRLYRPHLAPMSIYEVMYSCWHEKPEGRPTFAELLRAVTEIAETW
Description: as §3, §4

NUAK2 = target: T3, NUAK2 (Homo sapiens, UniProt Q9H093); test: SelectScreen kinase profiling, LanthaScreen protocol; assay type: biochemical
T3 sequence (Q9H093 1-628): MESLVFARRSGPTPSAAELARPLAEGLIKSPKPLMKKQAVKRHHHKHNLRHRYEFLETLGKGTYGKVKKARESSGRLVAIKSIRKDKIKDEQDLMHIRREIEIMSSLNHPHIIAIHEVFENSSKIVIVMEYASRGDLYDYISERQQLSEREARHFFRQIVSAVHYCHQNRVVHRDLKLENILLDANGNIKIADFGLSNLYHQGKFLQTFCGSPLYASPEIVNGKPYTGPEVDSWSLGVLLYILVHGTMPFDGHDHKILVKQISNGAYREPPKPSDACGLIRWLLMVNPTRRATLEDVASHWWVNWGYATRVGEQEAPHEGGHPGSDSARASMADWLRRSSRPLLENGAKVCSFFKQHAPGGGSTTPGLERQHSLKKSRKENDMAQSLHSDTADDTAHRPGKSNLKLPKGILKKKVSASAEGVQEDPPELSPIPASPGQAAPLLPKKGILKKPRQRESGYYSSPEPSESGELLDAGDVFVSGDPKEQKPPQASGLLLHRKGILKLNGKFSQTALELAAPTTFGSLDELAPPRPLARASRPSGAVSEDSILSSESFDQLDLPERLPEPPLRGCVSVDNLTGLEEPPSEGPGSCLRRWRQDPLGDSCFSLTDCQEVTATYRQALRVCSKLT
Description: as §3, §4

[5] = system: 1A9 (ovarian cancer) cell line; test: MTT cell proliferation assay, 1A9; assay type: cell-based; conditions: 1A9, MTT assay, 3 days; read-out: IC50, growth inhibition
Description: as §1, §2

[6] = read-out: Inhibition (IC50 at 10 μM)
[7] = single-point, read-out: percent inhibition

Sequence of c-Src (sarcoma) kinase (P12931 whole entry): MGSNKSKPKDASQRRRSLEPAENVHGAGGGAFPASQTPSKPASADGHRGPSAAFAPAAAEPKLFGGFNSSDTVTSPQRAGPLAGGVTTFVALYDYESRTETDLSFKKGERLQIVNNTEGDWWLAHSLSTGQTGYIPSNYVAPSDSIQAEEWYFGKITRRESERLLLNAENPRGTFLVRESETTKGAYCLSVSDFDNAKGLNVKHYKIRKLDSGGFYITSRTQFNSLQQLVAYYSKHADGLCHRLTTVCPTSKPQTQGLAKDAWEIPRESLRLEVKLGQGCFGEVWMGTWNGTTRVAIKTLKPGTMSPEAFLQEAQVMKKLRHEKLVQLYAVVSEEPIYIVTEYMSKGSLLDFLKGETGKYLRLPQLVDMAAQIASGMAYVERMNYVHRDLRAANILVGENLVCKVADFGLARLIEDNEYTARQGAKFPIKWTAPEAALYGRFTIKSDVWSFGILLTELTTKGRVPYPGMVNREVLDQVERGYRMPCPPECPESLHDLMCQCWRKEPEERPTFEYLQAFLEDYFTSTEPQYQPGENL

Compound: C/C=C/[C@H]1O[C@@H]2C(=C[C@H]1O)C(=O)O[C@H]2C [(−)-TAN-2483A]
inhibition of c-Src (sarcoma) kinase (c-Src (sarcoma) kinase): inhibition | inhibition of PTH-induced bone resorption [1]: inhibition

Compound: C/C=C/[C@H]1O[C@H]2C(=C[C@H]1O)C(=O)O[C@H]2C [(−)-TAN-2483B]
inhibition of c-Src (sarcoma) kinase (c-Src (sarcoma) kinase): inhibition | inhibition of PTH-induced bone resorption [1]: inhibition

IC50 ([2]; Homo sapiens, 48 h): 3.6 µM | IC50 [3]: 9 µM | inhibition at 10 µM (AMPK A2/B1/G1; AMPK A2/B1/G1, at 10 μM, read-out: Inhibition (IC50 at 10 μM)): 81% | inhibition at 10 µM (AMPK A2/B1/G1; AMPK A2/B1/G1, single-point, at 10 μM, read-out: percent inhibition): 81% | inhibition at 10 µM (BMX; [6]): 80% | inhibition at 10 µM (BMX; [7]): 80% | inhibition at 10 µM [4, 6]: 83% | inhibition at 10 µM [4, 7]: 83% | inhibition at 10 µM (MAPK14 (p38 alpha); MAPK14 (p38 alpha), single-point, at 10 μM, read-out: percent inhibition): 74% | inhibition at 10 µM (MAPK14 (p38 alpha); MAPK14, at 10 μM, read-out: Inhibition (IC50 at 10 μM)): 74% | inhibition at 10 µM (PLK1; PLK1, at 10 μM, read-out: Inhibition (IC50 at 10 μM)): 81% | inhibition at 10 µM (PLK1; PLK1, single-point, at 10 μM, read-out: percent inhibition): 81% | inhibition at 10 µM (TXK; TXK1, at 10 μM, read-out: Inhibition (IC50 at 10 μM)): 71% | inhibition at 10 µM (TXK; TXK, single-point, at 10 μM, read-out: percent inhibition): 71% | inhibition at 10 µM (NUAK2; NUAK2, at 10 μM, read-out: Inhibition (IC50 at 10 μM)): 76% | inhibition at 10 µM (NUAK2; NUAK2, single-point, at 10 μM, read-out: percent inhibition): 76%
Compound: CCOC(=O)/C=C\[C@H]1O[C@H]2C(=C[C@H]1O)C(=O)O[C@H]2C [Compound 10, (−)-TAN-2483B Z-ethyl ester]

IC50 ([2]; Homo sapiens, 48 h): 42 µM
Compound: C[C@@H]1OC(=O)C2=C[C@@H](O)[C@@H](/C=C/CO)O[C@@H]21 [Compound 19, Hydroxy-TAN-2483B]

IC50 [2]: 2.2 µM | IC50 [5]: 3.4 µM
Compound: (−)-TAN-2483B E-ethyl ester [Compound 14]
